In ChEMBL document CHEMBL5465560, “Selectivity Literature for EUbOPEN Chemogenomic Library” (2024):
One block for each compound: values may come before it.

How the values were obtained:
[1] = target: T1, Mitogen-activated protein kinase 13 (Homo sapiens) (UniProt O15264); details: at 10 µM
T1 sequence (whole entry): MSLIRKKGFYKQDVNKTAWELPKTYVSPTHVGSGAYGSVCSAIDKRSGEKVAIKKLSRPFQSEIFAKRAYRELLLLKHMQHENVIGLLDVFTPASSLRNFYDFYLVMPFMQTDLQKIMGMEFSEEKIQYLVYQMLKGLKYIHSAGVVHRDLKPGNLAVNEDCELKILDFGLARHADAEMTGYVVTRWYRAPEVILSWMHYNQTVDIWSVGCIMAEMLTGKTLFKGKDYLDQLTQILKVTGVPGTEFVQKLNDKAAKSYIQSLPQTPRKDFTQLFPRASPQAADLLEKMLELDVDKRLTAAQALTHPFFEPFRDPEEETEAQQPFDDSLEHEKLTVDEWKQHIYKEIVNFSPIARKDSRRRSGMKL

[2] = target: Serine/threonine-protein kinase PAK 2 (Homo sapiens) (UniProt Q13177); experiment: Selectivity interaction (Millipore kinase profiler) EUB0000124b PAK2; details: at 10 µM
Serine/threonine-protein kinase PAK 2 (Homo sapiens), sequence (Q13177 whole entry): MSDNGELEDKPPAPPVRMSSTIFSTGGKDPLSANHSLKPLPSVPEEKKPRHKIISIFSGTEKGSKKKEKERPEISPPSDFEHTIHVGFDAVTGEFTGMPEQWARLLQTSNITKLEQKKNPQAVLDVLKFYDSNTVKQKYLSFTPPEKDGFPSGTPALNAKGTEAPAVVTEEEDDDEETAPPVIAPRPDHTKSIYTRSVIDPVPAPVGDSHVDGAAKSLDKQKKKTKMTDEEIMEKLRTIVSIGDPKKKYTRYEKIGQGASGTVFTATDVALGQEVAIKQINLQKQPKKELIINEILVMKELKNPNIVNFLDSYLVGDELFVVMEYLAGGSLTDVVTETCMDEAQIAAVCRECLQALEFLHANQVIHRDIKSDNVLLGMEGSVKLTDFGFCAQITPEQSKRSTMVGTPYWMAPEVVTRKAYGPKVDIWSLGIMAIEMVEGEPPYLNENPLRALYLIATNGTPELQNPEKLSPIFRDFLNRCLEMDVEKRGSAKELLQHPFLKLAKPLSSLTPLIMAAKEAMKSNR

[3] = target: Cyclin-dependent kinase 9 (Homo sapiens, UniProt P50750); experiment: Selectivity interaction (Ambit KINOMEscan and KiNATiv profiling in Jurkat cells) EUB0000090b CDK9; assay type: cell-based; details: at 1 µM
Cyclin-dependent kinase 9, sequence (P50750 whole entry): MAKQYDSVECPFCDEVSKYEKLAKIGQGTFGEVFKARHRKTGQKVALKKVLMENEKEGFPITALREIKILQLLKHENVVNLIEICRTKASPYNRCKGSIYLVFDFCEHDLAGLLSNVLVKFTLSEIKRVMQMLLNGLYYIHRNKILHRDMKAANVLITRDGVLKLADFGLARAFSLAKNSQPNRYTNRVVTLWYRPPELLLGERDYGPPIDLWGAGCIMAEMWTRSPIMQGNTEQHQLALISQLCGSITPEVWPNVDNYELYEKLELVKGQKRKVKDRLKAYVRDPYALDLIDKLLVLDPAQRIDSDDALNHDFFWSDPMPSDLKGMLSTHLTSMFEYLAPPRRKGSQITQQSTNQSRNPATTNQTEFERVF

[4] = target: T2, Ribosomal protein S6 kinase beta-1 (Homo sapiens, UniProt P23443); experiment: Selectivity interaction (ActivX KiNativ screen (kinase selectivity in THP-1 cell lysates)) EUB0000639a RPS6KB1; assay type: subcellular; details: lysate
T2 sequence (P23443 whole entry, looked up): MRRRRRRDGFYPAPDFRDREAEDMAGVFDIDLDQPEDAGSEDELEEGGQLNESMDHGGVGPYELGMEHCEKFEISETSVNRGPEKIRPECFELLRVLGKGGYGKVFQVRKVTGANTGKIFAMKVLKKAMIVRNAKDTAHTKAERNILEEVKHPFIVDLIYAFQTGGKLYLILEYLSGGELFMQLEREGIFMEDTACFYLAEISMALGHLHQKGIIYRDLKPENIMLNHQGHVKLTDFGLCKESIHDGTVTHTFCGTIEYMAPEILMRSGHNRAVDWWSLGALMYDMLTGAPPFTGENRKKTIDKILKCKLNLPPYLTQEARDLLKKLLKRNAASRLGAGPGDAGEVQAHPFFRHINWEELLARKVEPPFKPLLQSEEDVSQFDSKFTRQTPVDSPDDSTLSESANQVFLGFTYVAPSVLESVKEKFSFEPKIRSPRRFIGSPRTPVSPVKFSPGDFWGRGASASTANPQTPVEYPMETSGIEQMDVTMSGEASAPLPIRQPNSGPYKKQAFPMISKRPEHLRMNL

[5] = target: Serine/threonine-protein kinase tousled-like 2 (Homo sapiens) (UniProt Q86UE8); experiment: Selectivity interaction (ActivX KiNativ screen (kinase selectivity in THP-1 cell lysates)) EUB0000639a TLK2; assay type: subcellular; details: lysate, at 0.2 µM
[6] = target: T3, TGF-beta receptor type-1 (Homo sapiens) (UniProt P36897); experiment: Selectivity interaction (KinomeScan (DiscoverX)) EUB0000695a TGFBR1; details: at 100 nM
T3 sequence (whole entry): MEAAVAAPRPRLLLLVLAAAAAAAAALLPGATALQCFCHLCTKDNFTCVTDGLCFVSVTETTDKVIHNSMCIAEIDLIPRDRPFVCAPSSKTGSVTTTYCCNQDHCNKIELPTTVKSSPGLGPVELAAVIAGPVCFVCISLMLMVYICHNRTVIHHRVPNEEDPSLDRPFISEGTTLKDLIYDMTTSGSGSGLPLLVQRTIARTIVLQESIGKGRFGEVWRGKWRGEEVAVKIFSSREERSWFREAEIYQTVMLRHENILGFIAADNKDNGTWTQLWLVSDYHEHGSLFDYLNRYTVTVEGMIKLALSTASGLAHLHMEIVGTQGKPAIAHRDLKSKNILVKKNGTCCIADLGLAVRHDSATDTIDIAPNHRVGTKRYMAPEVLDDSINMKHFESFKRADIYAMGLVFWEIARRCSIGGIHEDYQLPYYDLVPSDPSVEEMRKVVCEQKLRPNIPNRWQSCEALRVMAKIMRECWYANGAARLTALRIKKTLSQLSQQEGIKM

Histamine H1 receptor = Histamine H1 receptor (Homo sapiens, UniProt P35367); experiment: Selectivity interaction (Eurofins CEREP Diversity Profile (receptors and ion channels)) EUB0000279b HRH1; details: at 10 µM
Histamine H1 receptor, sequence (P35367 whole entry): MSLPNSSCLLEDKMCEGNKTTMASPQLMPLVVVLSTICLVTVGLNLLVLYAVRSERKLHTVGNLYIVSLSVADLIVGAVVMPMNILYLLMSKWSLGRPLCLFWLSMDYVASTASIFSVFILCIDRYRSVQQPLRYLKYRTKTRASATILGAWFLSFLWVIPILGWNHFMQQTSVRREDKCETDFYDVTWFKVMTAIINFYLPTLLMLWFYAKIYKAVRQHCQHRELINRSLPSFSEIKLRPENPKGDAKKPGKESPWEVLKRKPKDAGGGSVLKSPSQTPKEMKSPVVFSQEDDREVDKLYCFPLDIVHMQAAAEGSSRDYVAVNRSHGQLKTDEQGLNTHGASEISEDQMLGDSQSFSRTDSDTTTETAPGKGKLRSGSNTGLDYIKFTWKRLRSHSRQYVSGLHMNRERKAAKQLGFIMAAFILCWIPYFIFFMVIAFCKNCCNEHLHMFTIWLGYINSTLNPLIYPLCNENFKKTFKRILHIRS

[7] = target: Beta-2 adrenergic receptor (Homo sapiens, UniProt P07550); experiment: Selectivity interaction (Panel of non-epigenetic targets (kinases, GPCRs, ion channels, and transporters, Eurofins) ) EUB0000271b ADRB2; details: at 1 µM
[8] = target: Transcription initiation factor TFIID subunit 1-like (Homo sapiens) (UniProt Q8IZX4); experiment: Selectivity interaction (Human bromodomain panel (DSF assay)) EUB0000233b TAF1L
[9] = target: Mitogen-activated protein kinase kinase kinase 9 (Homo sapiens) (UniProt P80192); experiment: Selectivity interaction (KinomeScan (DiscoverX)) EUB0001619a MAP3K9; details: at 1 µM
Mitogen-activated protein kinase kinase kinase 9 (Homo sapiens), sequence (P80192 whole entry, looked up): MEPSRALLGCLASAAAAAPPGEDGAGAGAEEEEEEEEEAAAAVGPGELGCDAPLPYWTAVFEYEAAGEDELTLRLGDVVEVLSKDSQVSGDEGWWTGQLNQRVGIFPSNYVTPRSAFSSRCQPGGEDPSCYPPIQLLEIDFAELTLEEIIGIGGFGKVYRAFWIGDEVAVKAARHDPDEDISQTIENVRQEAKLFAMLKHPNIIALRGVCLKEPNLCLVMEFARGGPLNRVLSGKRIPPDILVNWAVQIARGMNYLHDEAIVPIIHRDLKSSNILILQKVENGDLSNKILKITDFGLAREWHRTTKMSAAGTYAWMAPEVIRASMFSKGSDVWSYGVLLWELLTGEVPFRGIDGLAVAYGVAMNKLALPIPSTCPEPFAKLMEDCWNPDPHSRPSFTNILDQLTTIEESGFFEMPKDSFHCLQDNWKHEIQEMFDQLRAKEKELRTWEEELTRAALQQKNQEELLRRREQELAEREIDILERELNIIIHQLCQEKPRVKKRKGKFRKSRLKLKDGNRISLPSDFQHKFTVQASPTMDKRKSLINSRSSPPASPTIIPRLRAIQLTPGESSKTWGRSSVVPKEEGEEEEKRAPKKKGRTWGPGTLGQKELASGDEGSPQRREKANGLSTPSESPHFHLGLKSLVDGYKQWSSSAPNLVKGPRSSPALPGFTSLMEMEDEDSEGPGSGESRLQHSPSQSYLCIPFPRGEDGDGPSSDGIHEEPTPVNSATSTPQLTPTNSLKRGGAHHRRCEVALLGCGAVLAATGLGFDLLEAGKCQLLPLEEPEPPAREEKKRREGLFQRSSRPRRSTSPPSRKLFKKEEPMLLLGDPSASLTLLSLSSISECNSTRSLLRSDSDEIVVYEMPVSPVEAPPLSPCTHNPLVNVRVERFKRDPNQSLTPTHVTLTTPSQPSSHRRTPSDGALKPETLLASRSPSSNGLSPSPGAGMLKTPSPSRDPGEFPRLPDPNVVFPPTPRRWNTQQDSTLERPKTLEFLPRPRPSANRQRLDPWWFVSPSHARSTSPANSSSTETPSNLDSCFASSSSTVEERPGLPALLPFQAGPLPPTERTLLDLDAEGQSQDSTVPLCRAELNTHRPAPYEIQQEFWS

[10] = target: Serine/threonine-protein kinase Nek6 (Homo sapiens) (UniProt Q9HC98); experiment: Selectivity interaction (ActivX KiNativ screen (ex vivo kinase selectivity in human PBMCs)) EUB0001619a NEK6; assay type: cell-based; details: PBMC, at 1 µM
Serine/threonine-protein kinase Nek6 (Homo sapiens), sequence (Q9HC98 whole entry): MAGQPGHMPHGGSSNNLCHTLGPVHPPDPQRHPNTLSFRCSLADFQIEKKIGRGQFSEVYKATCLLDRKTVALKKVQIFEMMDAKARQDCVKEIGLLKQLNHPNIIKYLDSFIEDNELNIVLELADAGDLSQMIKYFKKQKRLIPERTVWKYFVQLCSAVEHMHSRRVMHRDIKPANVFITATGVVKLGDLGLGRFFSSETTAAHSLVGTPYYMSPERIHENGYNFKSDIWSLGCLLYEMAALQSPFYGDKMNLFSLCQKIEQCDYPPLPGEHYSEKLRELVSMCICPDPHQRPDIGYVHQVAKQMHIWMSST

[11] = target: T2, Ribosomal protein S6 kinase beta-1; experiment: Selectivity interaction (ActivX KiNativ screen (ex vivo kinase selectivity in human PBMCs)) EUB0001619a RPS6KB1; assay type: cell-based; details: PBMC, at 1 µM
[12] = target: T4, Serine/threonine-protein kinase Nek3 (Homo sapiens) (UniProt P51956); experiment: Selectivity interaction (KinomeScan (DiscoverX)) EUB0000607a NEK3; details: at 10 µM
T4 sequence (whole entry): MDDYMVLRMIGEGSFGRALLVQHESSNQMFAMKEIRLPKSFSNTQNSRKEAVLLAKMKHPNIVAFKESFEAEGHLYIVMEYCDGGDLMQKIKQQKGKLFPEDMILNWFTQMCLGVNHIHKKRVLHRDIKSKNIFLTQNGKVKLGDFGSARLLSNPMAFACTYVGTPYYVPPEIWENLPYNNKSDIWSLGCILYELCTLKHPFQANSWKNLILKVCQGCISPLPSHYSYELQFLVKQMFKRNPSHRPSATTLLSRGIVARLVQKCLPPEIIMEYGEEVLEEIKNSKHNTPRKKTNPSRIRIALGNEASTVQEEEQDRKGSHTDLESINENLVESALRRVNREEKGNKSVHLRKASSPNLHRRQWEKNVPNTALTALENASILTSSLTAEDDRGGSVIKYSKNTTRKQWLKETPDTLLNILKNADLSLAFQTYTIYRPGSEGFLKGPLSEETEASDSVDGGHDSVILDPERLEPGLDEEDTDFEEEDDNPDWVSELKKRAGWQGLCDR

[13] = target: TRAF2 and NCK-interacting protein kinase (Homo sapiens) (UniProt Q9UKE5); experiment: Selectivity interaction (KinomeScan (DiscoverX)) EUB0000666a TNIK; details: at 10 µM
TRAF2 and NCK-interacting protein kinase (Homo sapiens), sequence (Q9UKE5 whole entry, looked up): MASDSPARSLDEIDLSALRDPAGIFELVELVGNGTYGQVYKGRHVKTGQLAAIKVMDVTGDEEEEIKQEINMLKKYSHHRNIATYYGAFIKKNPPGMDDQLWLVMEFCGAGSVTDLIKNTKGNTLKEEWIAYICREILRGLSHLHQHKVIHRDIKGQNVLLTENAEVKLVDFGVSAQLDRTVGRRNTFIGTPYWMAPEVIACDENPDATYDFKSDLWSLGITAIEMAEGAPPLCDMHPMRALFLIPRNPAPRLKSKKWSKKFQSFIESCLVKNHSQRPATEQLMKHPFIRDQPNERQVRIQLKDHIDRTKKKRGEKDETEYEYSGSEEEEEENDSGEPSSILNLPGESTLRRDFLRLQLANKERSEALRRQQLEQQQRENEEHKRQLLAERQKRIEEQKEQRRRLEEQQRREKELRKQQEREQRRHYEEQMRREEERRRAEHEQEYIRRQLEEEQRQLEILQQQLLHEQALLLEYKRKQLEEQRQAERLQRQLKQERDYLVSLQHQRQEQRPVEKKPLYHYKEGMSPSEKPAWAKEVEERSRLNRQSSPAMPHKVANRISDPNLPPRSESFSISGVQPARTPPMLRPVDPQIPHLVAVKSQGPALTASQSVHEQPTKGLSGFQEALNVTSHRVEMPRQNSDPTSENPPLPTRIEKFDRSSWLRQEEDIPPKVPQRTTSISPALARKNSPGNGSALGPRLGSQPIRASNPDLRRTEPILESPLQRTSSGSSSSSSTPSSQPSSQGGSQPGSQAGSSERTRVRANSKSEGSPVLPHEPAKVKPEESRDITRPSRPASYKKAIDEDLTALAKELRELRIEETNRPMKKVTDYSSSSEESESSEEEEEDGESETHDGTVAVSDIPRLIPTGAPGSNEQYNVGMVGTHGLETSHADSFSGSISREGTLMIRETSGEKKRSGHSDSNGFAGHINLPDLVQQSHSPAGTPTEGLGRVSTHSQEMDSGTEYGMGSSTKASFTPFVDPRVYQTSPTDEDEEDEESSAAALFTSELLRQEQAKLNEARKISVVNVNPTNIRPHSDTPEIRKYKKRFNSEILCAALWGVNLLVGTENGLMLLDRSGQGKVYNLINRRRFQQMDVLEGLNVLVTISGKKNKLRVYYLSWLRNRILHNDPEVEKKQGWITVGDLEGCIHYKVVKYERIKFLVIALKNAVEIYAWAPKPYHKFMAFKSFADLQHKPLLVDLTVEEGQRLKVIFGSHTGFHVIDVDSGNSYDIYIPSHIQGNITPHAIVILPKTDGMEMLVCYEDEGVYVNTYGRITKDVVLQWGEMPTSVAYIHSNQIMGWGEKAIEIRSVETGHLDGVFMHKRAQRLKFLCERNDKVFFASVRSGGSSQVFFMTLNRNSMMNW

SMILES: Cc1cc([C@@H](C)Nc2ccccc2C(=O)O)c2nc(N3CCOCC3)cc(=O)n2c1 [AZD-6482]
% of control [1]: 87%

% of control [2]: 96%
SMILES: CC(=O)Nc1cccc(-n2c(=O)n(C3CC3)c(=O)c3c(Nc4ccc(I)cc4F)n(C)c(=O)c(C)c32)c1

SMILES: CN(C)C/C=C/C(=O)Nc1ccc(C(=O)N2CCCC(Nc3ncc(Cl)c(-c4c[nH]c5ccccc45)n3)C2)cc1 (stereo not drawn)
% of control [3]: 58%

% of inhibition ([4]; at 0.01 µM): 17.1% | % of inhibition ([4]; at 0.04 µM): -0.8% | % of inhibition ([4]; at 0.2 µM): -21.6% | % of inhibition ([4]; at 1 µM): -2.2% | % of inhibition ([4]; at 5 µM): -3% | % of inhibition [5]: 16.8%
SMILES: CC[C@@H]1[C@H](F)C(=O)N[C@@H]1COc1nccc2cc(C(N)=O)c(OC)cc12 [ZIMLOVISERTIB]

SMILES: Cc1cc(F)c(C(=O)Nc2cccc(-c3nncn3C(C)C)n2)cc1-n1cnc(C2CC2)c1
% of control [6]: 90%

% of control (Histamine H1 receptor): 107%
SMILES: CC(=O)c1cc(-c2ccccc2OCC2CC2)c2ncccn12

SMILES: Cc1cc(C)cc([C@@H]2c3cc(C)ccc3NC(=O)CN2C(=O)c2ccc(Br)s2)c1
% of inhibition [7]: -7%

dTM [8]: < 2 K
SMILES: CN(C)CCCOc1ccc(-c2cc(NCCCn3cccn3)nc(S(C)(=O)=O)n2)cc1

SMILES: N#Cc1cccc(-c2c[nH]c3ncnc(N4CCOCC4)c23)c1
% of control [9]: 72% | % of inhibition [10]: -5% | % of inhibition [11]: -10%

SMILES: CNC(=O)Nc1ccc(-c2nc(N3CC4CCC(C3)O4)c3cnn(C4CCC5(CC4)OCCO5)c3n2)cc1
% of control [12]: 100%

SMILES: O=C(NOC[C@H](O)CO)c1ccc(F)c(F)c1Nc1ccc(I)cc1F
% of control [13]: 100%
